Each molecule was assayed on beta-TC6 cells (assay: Insulin HTRF assay (relative activity Ar) in beta-TC6 cells). Settings: Mus musculus, Beta-TC6, 4 h, insulin HTRF, supernatant of beta-TC6 cells, incubation with test compound at 37°C for 2, 3, 4h; read-out: Ar (relative activity).
Assay type: cell-based, mouse
How it was run: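 beta-TC6 cells (15k/well, seeded 24 or 48 h) washed, then exposed to compound in induction buffer (0.5% DMSO final) for 2, 3 or 4 h at 37°C.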
Work on `CC(=O)c1cccc(Nc2cc3[nH]c(-c4cnn(C)c4)cc3cn2)c1` [Compound 124, 1-[3-[[2-(1-methylpyrazol-4-yl)-1H-pyrrolo[3,2-c]pyridin-6-yl]amino]phenyl]ethanone] yielded an Emax greater than 100%.
With `CC(=O)Nc1cccc(-c2cc3c(cn2)nc(NCc2cccc(C)c2)n3C)c1` [Compound 580, N-[3-[1-methyl-2-(m-tolylmethylamino)imidazo[4,5-c]pyridin-6-yl]phenyl]acetamide] the Emax was 30 to 50%.
`COc1ccc(Nc2cc3[nH]c(-c4ccc(C(=O)N(C)C)cc4)cc3cn2)cc1OC` [Compound 21, 4-[6-(3,4-dimethoxyanilino)-1H-pyrrolo[3,2-c]pyridin-2-yl]-N,N-dimethyl-benzamide] showed an Emax of 50 to 100%.
`COc1ccc(Cn2cnc3cnc(-c4cc(OC)c(OC)c(OC)c4)cc32)cc1OC` [Compound 738, 1-[(3,4-dimethoxyphenyl)methyl]-6-(3,4,5-trimethoxyphenyl)imidazo[4,5-c]pyridine] gave an Emax of 30 to 50%.
`Cn1c(NCc2ccccc2F)nc2cnc(-c3cccc(CO)c3)cc21` [Compound 868, [3-[2-[(2-fluorophenyl)methylamino]-1-methyl-imidazo[4,5-c]pyridin-6-yl]phenyl]methanol] was tested, and the Emax was 0 to 30%.
With `Fc1ccc(Nc2cc3[nH]c(-c4ccccc4)cc3cn2)cc1` [Compound 179, N-(4-fluorophenyl)-2-phenyl-1H-pyrrolo[3,2-c]pyridin-6-amine] the Emax was 30 to 50%.
`COc1cc(Nc2cc3c(cn2)cc(-c2cccc(N(C)C(C)=O)c2)n3C)cc(OC)c1OC` [Compound 158, N-methyl-N-[3-[1-methyl-6-(3,4,5-trimethoxyanilino)pyrrolo[3,2-c]pyridin-2-yl]phenyl]acetamide] was tested, and the Emax was 50 to 100%.
In the case of `COc1cc(OC)cc(-c2cc3c(Nc4ccc(C(N)=O)cc4)nccc3[nH]2)c1` [Compound 290, 4-[[2-(3,5-dimethoxyphenyl)-1H-pyrrolo[3,2-c]pyridin-4-yl]amino]benzamide], the Emax is reported as 50 to 100%.
For `Cn1c(NCC2CCCO2)nc2cnc(-c3cccc(Oc4ccccc4)c3)cc21` (centres unmarked) [Compound 851, 1-methyl-6-(3-phenoxyphenyl)-N-(tetrahydrofuran-2-ylmethyl)imidazo[4,5-c]pyridin-2-amine], the Emax was 30 to 50%.
Molecule `CS(=O)(=O)c1cccc(Nc2nccc3[nH]c(-c4ccccc4)nc23)c1` [Compound 336, N-(3-methylsulfonylphenyl)-2-phenyl-1H-imidazo[4,5-c]pyridin-4-amine] has an Emax of 30 to 50%.
`CN(C)c1ccc(CNc2nccc3[nH]c(-c4ccncc4)nc23)cc1` [Compound 430, N-[(4-dimethylaminophenyl)methyl]-2-(4-pyridyl)-1H-imidazo[4,5-c]pyridin-4-amine] was tested, and the Emax was 50 to 100%.
`CNc1nc2cnc(Nc3ccc(O)cc3)cc2n1-c1cc(OC)c(OC)c(OC)c1` [Compound 485, 4-[[2-(methylamino)-1-(3,4,5-trimethoxyphenyl)imidazo[4,5-c]pyridin-6-yl]amino]phenol] showed an Emax of 50 to 100%.
Molecule `COc1ccc(Nc2nccc3[nH]c(-c4ccncc4)nc23)cc1` [Compound 427, N-(4-methoxyphenyl)-2-(4-pyridyl)-1H-imidazo[4,5-c]pyridin-4-amine] has an Emax of 50 to 100%.
Molecule `Cn1c(-c2ccco2)nc2cnc(-c3cccc(OC(F)(F)F)c3)cc21` [Compound 756, 2-(2-furyl)-1-methyl-6-[3-(trifluoromethoxy)phenyl]imidazo[4,5-c]pyridine] has an Emax of 0 to 30%.
With `CNc1nc2cnc(-c3cccc(N(C)C)c3)cc2n1-c1ccccc1` [Compound 783, 6-[3-(dimethylamino)phenyl]-N-methyl-1-phenyl-imidazo[4,5-c]pyridin-2-amine] the Emax was 0 to 30%.
With `CNc1nc2cnc(Nc3cccc(C(F)(F)F)c3)cc2n1Cc1cccnc1` [Compound 765, N2-methyl-1-(3-pyridylmethyl)-N6-[3-(trifluoromethyl)phenyl]imidazo[4,5-c]pyridine-2,6-diamine] the Emax was 0 to 30%.
In the case of `CNc1nc2cnc(Nc3cccc(OC)c3)cc2n1CCN1CCOCC1` [Compound 552, N6-(3-methoxyphenyl)-N2-methyl-1-(2-morpholinoethyl)imidazo[4,5-c]pyridine-2,6-diamine], the Emax is reported as 30 to 50%.
In the case of `COc1cccc(Nc2cc3c(cn2)cc(-c2ccc(C(=O)N(C)C)cc2)n3C)c1` [Compound 45, 4-[6-(3-methoxyanilino)-1-methyl-pyrrolo[3,2-c]pyridin-2-yl]-N,N-dimethyl-benzamide], the Emax is reported as 30 to 50%.
For `COc1ccc(-c2cc3c(cn2)nc(NCc2ccccc2)n3C)cc1` [Compound 839, N-benzyl-6-(4-methoxyphenyl)-1-methyl-imidazo[4,5-c]pyridin-2-amine], the Emax was 30 to 50%.
Work on `CS(=O)(=O)Nc1cccc(Nc2cc3[nH]c(-c4cccc(C(F)(F)F)c4)cc3cn2)c1` [Compound 5, N-[3-[[2-[3-(trifluoromethyl)phenyl]-1H-pyrrolo[3,2-c]pyridin-6-yl]amino]phenyl]methanesulfonamide] yielded an Emax of 0 to 30%.
For `CN(C)c1cccc(Nc2nccc3c2cc(-c2cccnc2)n3C)c1` [Compound 239, N1,N1-dimethyl-N3-[1-methyl-2-(3-pyridyl)pyrrolo[3,2-c]pyridin-4-yl]benzene-1,3-diamine], the Emax was 30 to 50%.
`CC(=O)c1cccc(Nc2cc3[nH]c(-c4cn[nH]c4)cc3cn2)c1` [Compound 118, 1-[3-[[2-(1 H-pyrazol-4-yl)-1H-pyrrolo[3,2-c]pyridin-6-yl]amino]phenyl]ethanone] showed an Emax greater than 100%.
In the case of `CNc1nc2cnc(Nc3ccc4c(c3)OCO4)cc2n1-c1ccccc1` [Compound 512, N6-(1,3-benzodioxol-5-yl)-N2-methyl-1-phenyl-imidazo[4,5-c]pyridine-2,6-diamine], the Emax is reported as 50 to 100%.
With `CC(=O)Nc1ccc(Nc2cc3c(cn2)ncn3Cc2ccccc2)cc1` [Compound 694, N-[4-[(1-benzylimidazo[4,5-c]pyridin-6-yl)amino]phenyl]acetamide] the Emax was 50 to 100%.
In the case of `COc1ccc(-c2nc3c(Nc4ccccc4)nccc3[nH]2)cc1` [Compound 393, 2-(4-methoxyphenyl)-N-phenyl-1H-imidazo[4,5-c]pyridin-4-amine], the Emax is reported as 30 to 50%.
In the case of `COc1ccc(CNc2nc3cnc(Nc4ccc(N5CCN(C)CC5)cc4)cc3n2C)cc1OC` [Compound 605, N2-[(3,4-dimethoxyphenyl)methyl]-1-methyl-N6-[4-(4-methylpiperazin-1-yl)phenyl]imidazo[4,5-c]pyridine-2,6-diamine], the Emax is reported as 50 to 100%.
`Cn1cc(-c2cc3c(Nc4ccc(S(C)(=O)=O)cc4)nccc3[nH]2)cn1` [Compound 246, 2-(1-methylpyrazol-4-yl)-N-(4-methylsulfonylphenyl)-1H-pyrrolo[3,2-c]pyridin-4-amine] gave an Emax greater than 100%.
Work on `COc1ccc(Nc2nccc3[nH]c(-c4cccc(OC)c4F)nc23)cn1` [Compound 470, 2-(2-fluoro-3-methoxy-phenyl)-N-(6-methoxy-3-pyridyl)-1H-imidazo[4,5-c]pyridin-4-amine] yielded an Emax of 30 to 50%.
For `COc1ccc(Nc2nccc3c2cc(-c2ccsc2)n3C)cn1` [Compound 275, N-(6-methoxy-3-pyridyl)-1-methyl-2-(3-thienyl)pyrrolo[3,2-c]pyridin-4-amine], the Emax was 50 to 100%.
Work on `CN(C)C(=O)c1ccc(-c2cc3c(Nc4ccc(Oc5ccccc5)cc4)nccc3n2C)cc1` [Compound 217, N,N-dimethyl-4-[1-methyl-4-(4-phenoxyanilino)pyrrolo[3,2-c]pyridin-2-yl]benzamide] yielded an Emax of 0 to 30%.
Molecule `CNc1nc2cnc(Nc3ccc(OC)cc3OC)cc2n1CCN1CCOCC1` [Compound 553, N6-(2,4-dimethoxyphenyl)-N2-methyl-1-(2-morpholinoethyl)imidazo[4,5-c]pyridine-2,6-diamine] has an Emax of 30 to 50%.
`CNc1nc2cnc(Nc3cc(OC)c(OC)c(OC)c3)cc2n1-c1cccc(C(F)(F)F)c1` [Compound 539, N2-methyl-1-[3-(trifluoromethyl)phenyl]-N6-(3,4,5-trimethoxyphenyl)imidazo[4,5-c]pyridine-2,6-diamine] gave an Emax of 30 to 50%.
For `COCCCNc1nccc2[nH]c(-c3ccc(OC)cc3)nc12` [Compound 401, 2-(4-methoxyphenyl)-N-(3-methoxypropyl)-1H-imidazo[4,5-c]pyridin-4-amine], the Emax was 30 to 50%.
For `Fc1ccc(Nc2nccc3[nH]c(-c4ccccc4Cl)nc23)cc1Cl` [Compound 461, N-(3-chloro-4-fluoro-phenyl)-2-(2-chlorophenyl)-1H-imidazo[4,5-c]pyridin-4-amine], the Emax was 0 to 30%.
For `CNc1nc2cnc(Nc3ccc(OC)nc3)cc2n1-c1cc(OC)c(OC)c(OC)c1` [Compound 488, N6-(6-methoxy-3-pyridyl)-N2-methyl-1-(3,4,5-trimethoxyphenyl)imidazo[4,5-c]pyridine-2,6-diamine], the Emax was 50 to 100%.
`Cn1cc(-c2cc3cnc(Nc4cccc(NS(C)(=O)=O)c4)cc3n2Cc2ccccc2)cn1` [Compound 156, N-[3-[[1-benzyl-2-(1-methylpyrazol-4-yl)pyrrolo[3,2-c]pyridin-6-yl]amino]phenyl]methanesulfonamide] was tested, and the Emax was 30 to 50%.
`CC(=O)Nc1ccc(Nc2cc3c(cn2)nc(-c2cccc(F)c2)n3C)cc1` [Compound 713, N-[4-[[2-(3-fluorophenyl)-1-methyl-imidazo[4,5-c]pyridin-6-yl]amino]phenyl]acetamide] was tested, and the Emax was 50 to 100%.
In the case of `COc1ccc(-c2nc3c(NCCc4ccccn4)nccc3[nH]2)cc1` [Compound 394, 2-(4-methoxyphenyl)-N-[2-(2-pyridyl)ethyl]-1H-imidazo[4,5-c]pyridin-4-amine], the Emax is reported as 30 to 50%.
`COc1cc(Nc2cc3[nH]c(-c4ccc(C(=O)N(C)C)cc4)cc3cn2)cc(OC)c1OC` [Compound 18, N,N-dimethyl-4-[6-(3,4,5-trimethoxyanilino)-1H-pyrrolo[3,2-c]pyridin-2-yl]benzamide] gave an Emax of 50 to 100%.
Work on `COc1ccc(Nc2cc3c(cn2)nc(NCc2ccccc2)n3C)cn1` [Compound 618, N2-benzyl-N6-(6-methoxy-3-pyridyl)-1-methyl-imidazo[4,5-c]pyridine-2,6-diamine] yielded an Emax of 50 to 100%.
Molecule `Cn1c(-c2cccnc2)cc2c(Nc3cccc(NS(C)(=O)=O)c3)nccc21` [Compound 244, N-[3-[[1-methyl-2-(3-pyridyl)pyrrolo[3,2-c]pyridin-4-yl]amino]phenyl]methanesulfonamide] has an Emax of 50 to 100%.

— patent publication EP2818472A1, “Imidazo[4,5-c]pyridine and pyrrolo[3,2-c]pyridine compounds as G-protein-coupled receptor kinase 5 (GRK5) modulators” (Max-Planck-Gesellschaft zur Förderung der Wissenschaften …, priority 2013, dated 2014)
